Where “and” joins values, the source holds several entries; their conditions need not be identical. Equal values may be shown once. Read-outs that look alike come from different tables or passages of the source. Marks after values point to notes of the source that are not given here.
What was measured:
[1] = target: T1, TbHsp83 NTD (Trypanosoma brucei brucei, UniProt P12861); test: biochemical; type: binding
[2] = test system: T2, Human Hsp90α; test: Differential scanning fluorimetry (DSF) thermal shift, human Hsp90α NTD; type: binding; settings: inhibitor 25 µM
T2 construct: The NTDs from TbHsp83 as well as human Hsp90s α and β
Protocol: (§1) DSF screening was carried out using a LightCycler 480 Real Time PCR System (Roche Applied Science, Quebec, Canada). The NTDs from TbHsp83 as well as human Hsp90s α and β were buffered in 100 mM hepes pH 7.5, 150 mM NaCl and assayed in a 384-well format. The final concentration of the protein sample was optimized between 0.05 and 0.2 mg/ml for each NTD (concentration selected based on pre-testing results to avoid saturation of the fluorescence detector). […] The recorded fluorescence reads were fitted to the Boltzmann sigmoid function using Bioactive software (Harbinger Biotechnology and Engineering Corp., Ontario, Canada). The inflection point of each fitted curve is defined as the melting temperature (T m). […] Thermal shifts above 2°C were considered significant.

[3] = test system: TbHsp83 NTD; type: binding; settings: DSF comparison of TbHsp83, Hsp90α and Hsp90β
Protocol: as §1

[4] = target: T1, TbHsp83 NTD; type: binding; settings: TbHsp83 NTD, inhibitor 25 µM, shifts above 2°C considered significant
Protocol: as §1

[5] = test system: T3, Human Hsp90β; test: Differential scanning fluorimetry (DSF) thermal shift, human Hsp90β NTD; type: binding; settings: inhibitor 25 µM
T3 construct: The NTDs from TbHsp83 as well as human Hsp90s α and β
Protocol: as §1

[6] = test system: T. brucei 427; test: Parasite growth inhibition assay; type: cell-based; settings: Trypanosoma brucei
Protocol: Assay conditions for T. brucei 427 cell based assay were followed as previously reported in the literature.
Several of the compounds characterized using DSF and ITC assays were evaluated for their ability to kill T. brucei in a continuous in vitro culture system.

[7] = target: Yeast Hsp83; settings: read-out: K d (previous ITC measurements); cited from earlier work
[8] = target: T3, Human Hsp90β; settings: read-out: K d (previous ITC measurements); cited from earlier work
[9] = test system: Trypanosoma brucei; design: method as in PMID 23630365; settings: cited from earlier work
[10] = test system: Plasmodium; design: method as in PMID 12584193; settings: cited from earlier work
[11] = target: Human TRAP-1; settings: read-out: K d (previous ITC measurements); cited from earlier work
[12] = ITC, 20°C, TbHsp83 NTD, read-out: K d
[13] = blood stream stage T. brucei 427, in vitro culture, read-out: EC50

T1 sequence (P12861 1-213): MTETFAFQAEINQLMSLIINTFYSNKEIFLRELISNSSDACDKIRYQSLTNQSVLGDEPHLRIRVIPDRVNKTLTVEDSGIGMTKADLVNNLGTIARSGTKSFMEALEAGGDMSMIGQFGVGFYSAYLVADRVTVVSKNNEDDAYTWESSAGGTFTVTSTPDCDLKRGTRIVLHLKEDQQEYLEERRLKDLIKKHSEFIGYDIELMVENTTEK

| Compound | Kd [1, 12] | ΔT m [2] | ΔT m [4] [°C] | ΔT m [5] | further results |
| --- | --- | --- | --- | --- | --- |
| CCNC(=O)c1noc(-c2cc(C(C)C)c(O)cc2O)c1-c1ccc(CN2CCOCC2)cc1 [NVP-AUY922] | 3 nM | 22.3 °C | 18.5 | 19.6 °C | binding preference TbHsp83 vs human Hsp90 [3]: stronger affinity for human Hsp90 |
| COc1c(C)cnc(Cn2cnc3c(Cl)nc(N)nc32)c1C [Compound 1, 6-chloro-9-(4-methoxy-3,-dimethylpyridin-2-ylmethyl)-9H-purin-2-ylamine] | – | – | 10.5 | 8.7 °C | Kd ([1]; K d, ITC, 20°C, TbHsp83 NTD): 9 nM; EC50 [6, 13]: 310 nM |
| Nc1ncnc2c1ncn2[C@@H]1O[C@H](COP(=O)(O)OP(=O)(O)NP(=O)(O)O)[C@@H](O)[C@H]1O [AMPPNP] | – | – | 0.3 | – | Kd [7]: 111000 nM; Kd [8]: 141000 nM |
| COC1=C2C[C@@H](C)C[C@H](OC)[C@H](O)[C@@H](C)/C=C(\C)[C@H](OC(N)=O)[C@@H](OC)/C=C\C=C(/C)C(=O)NC(=CC1=O)C2=O [Geldanamycin] | – | – | 14.8 | – | Kd ([1]; K d, ITC, 20°C, TbHsp83 NTD): 1000 nM; EC50 [9]: 13 nM; Kd [7]: 2900 nM; concentration inhibiting parasite growth [10]: sub-micromolar |
| CC(=O)c1ccc(N2C3CCC2CC(NC(=O)c2ccc(C(N)=O)c(NC4CCC(O)CC4)c2)C3)nc1 (stereo not drawn) [Compound 6, N4-[8-(5-acetylpyridin-2-yl)-8-azabicyclo[3.2.1]oct-3-endo-yl]-2-[(trans-4-hydroxycyclohexyl)amino]benzene-1,4-dicarboxamide] | – | 8.5 °C | 10.4 | 4.9 °C | EC50 [6, 13]: 220 nM |
| CCNC(=O)c1cc2c(-c3cc(OCCN(CC)CC)c(Cl)cc3Cl)nc(N)nc2s1 [Compound 3, 2-amino-4-[2,4-dichloro-5-(2-diethylaminoethoxy)phenyl]thiopheno[2,3-d]pyrimidine-6-carboxylic acid ethylamide] | 26 nM | 14.7 °C | 12.7 | 12.9 °C | EC50 [6]: 210 nM |
| C=CCNC1=C2C[C@@H](C)C[C@H](OC)[C@H](O)[C@@H](C)/C=C(\C)[C@H](OC(N)=O)[C@@H](OC)/C=C\C=C(/C)C(=O)NC(=CC1=O)C2=O [Compound 17-AAG-GA, 17-AAG-GA] | – | 3.1 °C | 10.7 | 1.6 °C | EC50 [9]: 38 nM |
| CCC(C)n1c(Cc2cc(OC)ccc2OC)nc2c(N)nc(C)nc21 (stereo not shown) [Compound 2, 9-(sec-butyl)-8-(2,5-dimethoxybenzyl)-2-methyl-9H-purin-6-amine] | 9300 nM and 9260 nM | 1.2 °C | 0.8 | −0.5 °C | K d ([1]; ITC, 20°C, TbHsp83 NTD): lowest affinity measured by ITC; EC50 [6, 13]: 13000 nM; ΔT m ([4]; listed as compound 2): non-significant |
| CC1(C)CC(=O)c2c(C(F)(F)F)nn(-c3ccc(C(N)=O)c(N[C@H]4CC[C@H](O)CC4)c3)c2C1 [Compound 4, 4-[6,6-dimethyl-4-oxo-3-(trifluoromethyl)-4,5,6,7-tetrahydro-1H-indazol-1-yl]-2-[(trans-4-hydroxycyclohexyl)amino]benzamide] | 3 nM | – | 15.5 | – | Kd ([1]; ITC, read-out: K d): 2.8 nM; EC50 [6, 13]: 100 nM |
| CO[C@H]1/C=C\C=C(/C)C(=O)NC2=CC(=O)C(NCCN3CCCC3)=C(C[C@@H](C)C[C@H](OC)[C@H](O)[C@@H](C)/C=C(\C)[C@@H]1OC(N)=O)C2=O [Compound 17-AEP-GA, 17-AEP-GA] | 714 nM | 5.1 °C | 13.8 | 4.2 °C | – |
| AMPPSP | – | – | – | – | Kd [11]: 109000 nM |
| C[C@@H]1C[C@H]2O[C@@H]2/C=C\C=C\C(=O)Cc2c(Cl)c(O)cc(O)c2C(=O)O1 [Radicicol] | – | 18.8 °C | 6.5 | 15.6 °C | EC50 [9]: 70 nM; Kd [11]: 25 nM; Kd [7]: 16 nM; binding preference TbHsp83 vs human Hsp90 [3]: stronger affinity for human Hsp90 |
| CO[C@H]1/C=C\C=C(/C)C(=O)NC2=CC(=O)C(NCCN(C)C)=C(C[C@@H](C)C[C@H](OC)[C@H](O)[C@@H](C)/C=C(\C)[C@@H]1OC(N)=O)C2=O [Compound 17-DAMG-GA, 17-DAMG-GA] | – | 5.5 °C | 11.7 | 3.9 °C | EC50 [9]: 3 nM; Kd [8]: 350 nM |
| Oc1cc(O)c(-c2noc3ccc(NCCN4CCOCC4)cc23)cc1Cl [CAY10607] | 10 nM | 15.3 °C | 13.3 | 12.1 °C | – |
| CSCCNc1cc(-n2nc(C(F)(F)F)c3c2CC(C)(C)CC3=O)ccc1C(N)=O [Compound 5, 4-(6,6-dimethyl-4-oxo-3-(trifluoromethyl)-4,5,6,7-tetrahydro-1H-indazol-1-yl)-2-((2-(methylthio)ethyl)amino)benzamide] | 794 nM | 2.3 °C | 12.03 | 0.4 °C | EC50 [6, 13]: 130 nM; binding preference TbHsp83 vs human Hsp90 [3]: preferentially binds TbHsp83; binding preference TbHsp83 vs human Hsp90 ([3]; listed as compound 5): markedly stronger binding to TbHsp83 |
| CCc1cc(-c2n[nH]c(C)c2-c2ccc3c(c2)OCCO3)c(O)cc1O [CCT018159] | 4980 nM | 12.1 °C | 8.01 | 7.5 °C | – |
| CO[C@H]1[C@@H](OC)C[C@H](C)[C@@H](OC)C2=CC(=O)C=C(NC(=O)/C(C)=C/C=C\[C@H](C)[C@@H](OC(N)=O)/C(C)=C/[C@@H]1C)C2=O [Macbecin I] | – | 10.2 °C | 16.9 | 8.6 °C | fold higher affinity of T. brucei Hsp83 compared to K d reported for yeast counterpart ([1]; ITC K d vs yeast value of ref 45): 2.5 fold; Kd ([1]; K d, ITC, 20°C, TbHsp83 NTD): 93 nM; Kd [7]: 240 nM; binding preference TbHsp83 vs human Hsp90 [3]: markedly stronger binding to TbHsp83 |
| Nc1ncnc2c1ncn2[C@@H]1O[C@H](COP(=O)(O)OP(=O)(O)O)[C@@H](O)[C@H]1O [ADP] | – | 0.3^a °C | 0.1 | 0.5^b °C | Kd [11]: 35000 nM; Kd [8]: 15000 nM |

Source: PMC3798429, “Exploring the Trypanosoma brucei Hsp83 Potential as a Target for Structure Guided Drug Design” (PLoS Neglected Tropical Diseases, 2013)
